Measurements: US11518742B2 (priority 2020, dated 2022)
Where two headings read alike, the source gives them in different places.

Key:
[1] = test system: male Sprague-Dawley rats; test: Functional Observational Battery (FOB), single intranasal administration (ITR study 15951); type: in vivo, rat
Method: The test and control/vehicle items were administered by single dose intranasal administration to both nostrils, as shown in Table 7.
Parameters monitored included mortality and clinical signs. General behavioral changes were assessed using FOB at 6 timepoints: before dosing, and at 15 minutes, 1, 2, 4, and 24 hours postdosing. On each occasion, the FOB was performed at 4 stages: when the animals were in their home cage, while handling the animals, when the animals were freely moving in an open-field, and when they received diverse stimuli for reactivity evaluation. The body temperature and neuromuscular strength were also measured on each of the occasions detailed above.

[2] = Toxicokinetics, 14-day intranasal study in dogs (Study 62959); type: in vivo; details: dog, plasma, inhaled or intranasal; for AUC(0-inf): read-out: AUCINF_obs; for half-life: read-out: t1/2 (converted); for AUC(0-t): read-out: AUC0-Tlast
Method: Assessments of mortality, clinical signs, olfactory reflex, body weights, food consumption, ophthalmology, and electrocardiograms were performed. In addition, clinical pathology assessments (hematology, coagulation, clinical chemistry and urinalysis) were evaluated once pretreatment and at termination. Blood samples were collected from the jugular vein of all animals on Days 1 and 14, at up to 8 time points relative to treatment, for analysis of test item concentration in plasma and the subsequent calculation of toxicokinetic parameters. Following dosing, the Main animals were euthanized and subjected to a complete necropsy examination on Day 15. […] All Main and Recovery study animals underwent complete necropsy examinations, selected tissues/organs were retained, and microscopic evaluations of a standard set of tissues were performed.
For toxicokinetics, a series of 8 blood samples were collected from the jugular vein from all treated animals on each of Days 1 and 14 of the treatment period at 2, 5, 10, 15, 30, and 60 minutes as well as 3 and 8 hours after treatment.

[3] = Summary of clinical observations in applicant-sponsored rat studies; details: Sprague Dawley, in vivo, other: intranasal instillation, HED 48 mg, read-out: NOAEL determined in the 14-day toxicology studies
From the text: Based on preliminary data from another ongoing study in dogs, it has been observed that the site of blood sampling in dogs may impact the measured plasma exposure. Samples from the jugular vein may result in higher apparent exposure levels than samples from the cephalic vein, which might be due to the local transmucosal route of administration (also reported in the scientific literature (Illum, 2003; Sohlberg, 2013)). Therefore, dose escalation criteria for the Phase 1 Single Ascending Dose study are based on assessment of clinical criteria, safety factors and exposure. A maximum dose of 14 mg has been designated.

[4] = female, Beagle, 0.8 mg/kg/day, Day 1, Female
[5] = female, Beagle, 0.8 mg/kg/day, Day 14, Female
[6] = female, beagle, 0.4 mg/kg/day, Day 1, Female
[7] = female, beagle, 0.4 mg/kg/day, Day 14, Female
[8] = female, beagle, […], 2.5 & […], Day 1, Female
[9] = male, Beagle, 0.8 mg/kg/day, Day 1, Male
[10] = male, Beagle, 0.8 mg/kg/day, Day 14, Male
[11] = male, beagle, 0.4 mg/kg/day, Day 1, Male
[12] = male, beagle, 0.4 mg/kg/day, Day 14, Male
[13] = male, beagle, […], 2.5 & […], Day 14, Male

In the case of `COc1ccc2[nH]cc(CCN(C)C)c2c1` [BPL-5MEO, 5-methoxy-N,N-dimethyltryptamine], the “Clinical sign in one animal” value ([1]; 10 mg/kg) is reported as “twitching”, the “Resolution of clinical signs and FOB changes” value ([1]; 1.5, 3, and 10 mg/kg) is reported as “fully resolved within 1 or 2 hours following dosing” and the “Clinical signs in some animals” value ([1]; 3 and 10 mg/kg doses) is reported as “Tremors, salivation, and gasping”. The FOB behavioral domain ([1]; 15 minutes postdose, comparable to control at 1-hour postdose) was “transient decreased activity, lying on the cage floor, and decreased rearing”, the “Clinical signs immediately following dosing” value ([1]; all dose groups, transient) was “decreased activity, lying on the cage floor, shallow/increased respiration and dilated pupils” and the “FOB neurological (sensorimotor)/neuromuscular domain” value ([1]; all dose levels, comparable to control at 1-hour postdose) was “transient changes in gait (difficulty in movement)”. For the same molecule, the FOB autonomic domain ([1]; all dose levels, comparable with control at 2 hours postdose) was “salivation, piloerection, increased respiration, dilated pupils and changes in body temperature”, the AUC ([2]; Beagle, dogs, 1.5 mg/kg/day, combined for both sexes, read-out: AUCINT_obs at the NOAEL) was 220 ng·h/mL and the Cmax [2, 4] was 328 ng/mL. It also gave an AUC(0-inf) [2, 4] of 265 ng·h/mL, a half-life [2, 4] of 43.8 min and a Cmax [2, 5] of 244 ng/mL. It also gave an AUC(0-t) [2, 5] of 248 ng·h/mL, a half-life [2, 5] of 95.4 min and a Cmax [2, 6] of 242 ng/mL. It also gave an AUC(0-t) [2, 6] of 104 ng·h/mL, an AUC(0-inf) [2, 6] of 106 ng·h/mL and a half-life [2, 6] of 18.7 min. It also gave a Cmax [2, 7] of 196 ng/mL, an AUC(0-t) [2, 7] of 86.4 ng·h/mL and an AUC(0-inf) [2, 7] of 95.9 ng·h/mL. The half-life [2, 7] was 42.4 min, the Tmax [2, 8] was 6.66 min and the half-life [2, 8] was 50.9 min. For the same molecule, the Cmax [2, 9] was 300 ng/mL, the Tmax [2, 9] was 6.66 min and the AUC(0-t) [2, 9] was 152 ng·h/mL. The AUC(0-inf) [2, 9] was 160 ng·h/mL, the half-life [2, 9] was 35.7 min and the Cmax [2, 10] was 411 ng/mL. For the same molecule, the Tmax [2, 10] was 6.66 min, the AUC(0-t) [2, 10] was 298 ng·h/mL and the AUC(0-inf) [2, 10] was 322 ng·h/mL. For the same molecule, the half-life [2, 10] was 79.2 min, the Cmax [2, 11] was 343 ng/mL and the AUC(0-t) [2, 11] was 77.9 ng·h/mL. The AUC(0-inf) [2, 11] was 80.9 ng·h/mL, the half-life [2, 11] was 34.3 min and the Cmax [2, 12] was 285 ng/mL. For the same molecule, the Tmax [2, 12] was 6.66 min, the AUC(0-t) [2, 12] was 70.6 ng·h/mL and the AUC(0-inf) [2, 12] was 77.7 ng·h/mL. For the same molecule, the half-life [2, 12] was 25.7 min, the Tmax [2, 13] was 13.4 min and the half-life [2, 13] was 49 min. The NOAEL at 14 days [3] was 5 mg/kg.
